# Tested on: 454973-116-R2-J3-PDC spheroids, viability, % test/control
# Experiment: Anticancer human tumor 454973-116-R2-J3-PDC patient-derived pancreatic carcinoma cell line growth inhibition [GQUAD]
# Details: spheroids with HUVEC and MSC; for IC50: curve of first compound; for viability, T/C: stronger effect = lower value
# Summary of the method: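 Viability of tumor cells grown as complex spheroids with endothelial and stromal cells, exposed to drug combinations. Top concentration at or near clinical Cmax (else 10 microM), diluted in half-log increments.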
# 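Note: spheroids exposed to compounds for seven days.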
# 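Throughout, for viability, T/C: 100% = DMSO vehicle control viability.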
smiles,measurement,setting,value
CC1COCCN1c1cc(C2(S(C)(=N)=O)CC2)nc(-c2ccnc3[nH]ccc23)n1 (configuration not stated) + CN(C)c1ccc(Nc2c3ccc(NC(=O)CCN4CCCC4)cc3nc3cc(NC(=O)CCN4CCCC4)ccc23)cc1,IC50,second compound 0.0316 µM,5.38 µM
same,IC50,second compound 0.1 µM,5.35 µM
same,IC50,second compound 0.316 µM,5.98 µM
same,IC50,second compound 1 µM,5.14 µM
same,IC50,second compound 3.16 µM,6.07 µM
same,IC50,second compound 10 µM,5.84 µM
same,"viability, T/C","second compound 0.0316 µM, first compound 0.0316 µM",110%
same,"viability, T/C","second compound 0.0316 µM, first compound 0.1 µM",105%
same,"viability, T/C","second compound 0.0316 µM, first compound 0.316 µM",105%
same,"viability, T/C","second compound 0.0316 µM, first compound 1 µM",102%
same,"viability, T/C","second compound 0.0316 µM, first compound 3.16 µM",64.1%
same,"viability, T/C","second compound 0.0316 µM, first compound 10 µM",33.5%
same,"viability, T/C","second compound 0.1 µM, first compound 0.0316 µM",109%
same,"viability, T/C","second compound 0.1 µM, first compound 0.1 µM",99.4%
same,"viability, T/C","second compound 0.1 µM, first compound 0.316 µM",115%
same,"viability, T/C","second compound 0.1 µM, first compound 1 µM",108%
same,"viability, T/C","second compound 0.1 µM, first compound 3.16 µM",62.9%
same,"viability, T/C","second compound 0.1 µM, first compound 10 µM",34.5%
same,"viability, T/C","second compound 0.316 µM, first compound 0.0316 µM",104%
same,"viability, T/C","second compound 0.316 µM, first compound 0.1 µM",103%
same,"viability, T/C","second compound 0.316 µM, first compound 0.316 µM",99.8%
same,"viability, T/C","second compound 0.316 µM, first compound 1 µM",100%
same,"viability, T/C","second compound 0.316 µM, first compound 3.16 µM",71.1%
same,"viability, T/C","second compound 0.316 µM, first compound 10 µM",33%
same,"viability, T/C","second compound 1 µM, first compound 0.0316 µM",94.4%
same,"viability, T/C","second compound 1 µM, first compound 0.1 µM",95.1%
same,"viability, T/C","second compound 1 µM, first compound 0.316 µM",110%
same,"viability, T/C","second compound 1 µM, first compound 1 µM",77.2%
same,"viability, T/C","second compound 1 µM, first compound 3.16 µM",63.9%
same,"viability, T/C","second compound 1 µM, first compound 10 µM",34.3%
same,"viability, T/C","second compound 3.16 µM, first compound 0.0316 µM",89%
same,"viability, T/C","second compound 3.16 µM, first compound 0.1 µM",90.8%
same,"viability, T/C","second compound 3.16 µM, first compound 0.316 µM",90.1%
same,"viability, T/C","second compound 3.16 µM, first compound 1 µM",82.8%
same,"viability, T/C","second compound 3.16 µM, first compound 3.16 µM",66.2%
same,"viability, T/C","second compound 3.16 µM, first compound 10 µM",37.7%
same,"viability, T/C","second compound 10 µM, first compound 0.0316 µM",80.5%
same,"viability, T/C","second compound 10 µM, first compound 0.1 µM",82.1%
same,"viability, T/C","second compound 10 µM, first compound 0.316 µM",83.7%
same,"viability, T/C","second compound 10 µM, first compound 1 µM",78.4%
same,"viability, T/C","second compound 10 µM, first compound 3.16 µM",59.8%
same,"viability, T/C","second compound 10 µM, first compound 10 µM",41.5%
